Source: patent publication US20090185973A1, “METHODS, COMPOSITIONS, UNIT DOSAGE FORMS, AND KITS FOR PHARMACOLOGIC STRESS TESTING WITH REDUCED SIDE EFFECTS” (ADENOBIO N.V., priority 2008, published 2009)
Where “and” joins values, the source holds several entries; their conditions need not be identical. Equal values may be shown once.

Experiments:
patients = assay: Control: two consecutive adenosine infusions, TTDE velocities; type: in vivo, human; conditions: for MV Min, individual patients / PV Min, individual patients / MV Min, mean / PV Min, mean: at rest; for MV Min, individual patients / PV Min, individual patients / PV Max, individual patients / MV Max, individual patients: ADE1 first, ADE2 second adenosine infusion; for MV Min, mean / PV Min, mean / MV Max, mean / PV Max, mean: mean of 5 patients; for PV Max, individual patients / MV Max, individual patients / MV Max, mean / PV Max, mean: under stress
Description: Abbreviations used in the table are defined below:

[1] = test system: patients with normal coronary reserve; assay: Priming dose effect: time to peak and return to baseline, concurrent administration (Example 4); type: in vivo, human; conditions: for Time to peak, individual patients / Return to BL, individual patients / Return to BL, Mean / Return to BL, Total / Time to peak, Mean / Time to peak, Total: N = 6; for Time to peak, individual patients / Return to BL, individual patients: listed as ADE; for Time to peak (near maximal hyperemia): adenosine alone vs concurrent combination without priming dose, on average
Description: As a test, a low priming dose of dipyridamole was combined with the concurrent administration of the two drugs to determine whether the time to peak and the occurrence of near maximal hyperaemia could be accelerated, especially when infusion time is reduced by, for example, one minute.

[2] = ADE vs C concurrent with dipyridamole priming dose (0.1 mg)
[3] = with dipyridamole priming dose (0.1 mg)
[4] = without dipyridamole priming dose

## Nc1ncnc2c1ncn2[C@@H]1O[C@H](CO)[C@@H](O)[C@H]1O [adenosine]
patients; 5 patients
  Max velocity differential MV (ADE1 − ADE2): 52.6 (ADE2) = 2.4 cm/sec
  Max velocity differential PV (ADE1 − ADE2): 70.8 (ADE2) = 4.8 cm/sec
patients; 140 mcg/kg/min, 5 minute interval, p>0.05
  Difference in velocity measurements between two consecutive infusions: no difference was seen
patients; listed as ADE1
  MV Min, individual patients: 20 cm/s and 25 cm/s and 17 cm/s and 22 cm/s and 23 cm/s
  PV Min, individual patients: 28 cm/sec and 34 cm/sec and 23 cm/sec and 30 cm/sec (2×)
  MV Min, mean: 21.4 cm/s
  PV Min, mean: 29 cm/sec
  MV Max, mean: 55 cm/s
  PV Max, mean: 75.6 cm/sec
patients; listed as ADE2
  MV Min, individual patients: 20 cm/s and 23 cm/s and 16 cm/s and 22 cm/s and 21 cm/s
  PV Min, individual patients: 25 cm/sec and 31 cm/sec and 22 cm/sec and 29 cm/sec and 26 cm/sec
  MV Min, mean: 20.4 cm/s
  PV Min, mean: 26.6 cm/sec
  MV Max, mean: 52.6 cm/s
  PV Max, mean: 70.8 cm/sec
patients; 140 mcg/kg/min, 5 minute interval, listed as ADE1
  PV Max, individual patients: 70 cm/sec and 68 cm/sec and 65 cm/sec and 102 cm/sec and 73 cm/sec
patients; 140 mcg/kg/min, 5 minute interval, listed as ADE2
  PV Max, individual patients: 62 cm/sec and 60 cm/sec and 66 cm/sec and 103 cm/sec and 63 cm/sec
patients; 140 mcg/kg/min, listed as ADE1
  MV Max, individual patients: 50 cm/s and 49 cm/s and 48 cm/s and 75 cm/s and 53 cm/s
patients; 140 mcg/kg/min, listed as ADE2
  MV Max, individual patients: 48 cm/sec (2×) and 45 cm/sec and 75 cm/sec and 47 cm/sec
[1]; ADE 140 μg/kg/min vs C (Dip 10 μg/kg/min + Ade 70 μg/kg/min) concurrent without dipyridamole priming dose
  Time to peak, individual patients: 56 s and 120 s and 50 s and 85 s and 80 s and 75 s
[1]; ADE 140 μg/kg/min vs C concurrent without dipyridamole priming dose
  Return to BL, individual patients: 75 seconds and 60 seconds (3×) and 100 seconds and 48 seconds
[1]; [2]
  Return to BL, individual patients: 55 s and 65 s and 54 s and 67 s and 48 s and 60 s
  Time to peak, individual patients: 74 s and 55 s and 45 s and 44 s and 30 s and 40 s
[1]
  Time to peak (near maximal hyperemia): about 1 minute
[1]; listed as Adenoscan
  Time to peak (near maximal hyperemia): ~1 min
[1]; [3]
  Return to BL, Mean: 58.1 s
  Return to BL, Total: 349 s
  Time to peak, Mean: 48 s
  Time to peak, Total: 288 s
[1]; [4]
  Return to BL, Mean: 67.1 s
  Return to BL, Total: 403 s
  Time to peak, Mean: 69.3 s
  Time to peak, Total: 416 s
